The results in this text go back to patent US20170100396A1 (priority 2015, published 2017).

The structures appear in SMILES notation.

One assay relates to influenza A virus (IAV) A/Aichi/2/68 (H3N2). Description: microbe, parasite or virus in culture.
Conditions: not given
It is filed as cell-based, influenza A virus in MDCK cells.
Regarding `COC(=O)[C@H]1CC[C@H](NC(=O)[C@H](NC(=O)c2c[nH]c3ncc(C4CC4)nc23)C2CCCCC2)CC1`, the “CPE (result in words)” value is listed as “Active”.

Staying with this assay, now noted: Influenza A virus, H3N2, MDCK, 48 h, read-out: CPE IC50.
Broadly, the IC50 is the concentration needed to halve the response being measured. For `O=C(N[C@@H](C(=O)N1CCC[C@@H](C(=O)N2CCOCC2)C1)C1CC1)c1c[nH]c2ncc(C3CC3)nc12`, the IC50 was over 100 µM.

Turning to `CC(C)C[C@@H](NC(=O)c1c[nH]c2ncc(C3CC3)nc12)C(=O)NCCC(=O)Nc1ccccc1`, the 50% inhibitory concentration (IC50) is over 100 µM.

Take `O=C(N[C@@H](C(=O)N1CCC[C@@H](C(=O)N2CCCC2)C1)C1CC1)c1c[nH]c2ncc(C3CC3)nc12`: the 50% inhibitory concentration (IC50) is over 100 µM.

Regarding `CC(C)C[C@@H](NC(=O)c1c[nH]c2ncc(C3CC3)nc12)C(=O)NC1CCCc2ccccc21` (stereo partly shown), the concentration for half-maximal inhibition (IC50) was over 100 µM.

In the case of `O=C(N[C@@H](C(=O)NCc1ccc(OC(F)(F)F)cc1)C1CC1)c1c[nH]c2ncc(C3CC3)nc12`, the IC50 stood at 5.4 µM.

`O=C(N[C@@H](C(=O)N1CCC[C@H](C(=O)N2CCCC2)C1)C1CC1)c1c[nH]c2ncc(C3CC3)nc12`: the 50% inhibitory concentration (IC50) is over 100 µM.

Take `CS(=O)(=O)CCNC(=O)c1c[nH]c2ncc(-c3ccccc3Cl)nc12`: the IC50 is over 100 µM.

Regarding `COc1ccc(CNC(=O)[C@H](NC(=O)c2c[nH]c3ncc(C4CC4)nc23)C2CC2)cc1`, the IC50 was found to be 10.3 µM.

In the case of `O=C(N[C@@H](C(=O)N1CC2(COC2)C1)C1CC1)c1c[nH]c2ncc(C3CC3)nc12`, the half-inhibitory concentration (IC50) was over 100 µM.

Turning to `O=C(N[C@@H](C(=O)N1CCC2(CCN(Cc3ccccc3)C2=O)C1)C1CC1)c1c[nH]c2ncc(C3CC3)nc12` (stereo partly shown), the half-inhibitory concentration (IC50) was 27 µM.

In the case of `O=C(N[C@@H](C(=O)NCCC(=O)N1CCS(=O)(=O)CC1)C1CC1)c1c[nH]c2ncc(C3CC3)nc12`, the half-inhibitory concentration (IC50) was over 100 µM.

On to `O=C(N[C@@H](C(=O)NCc1ccc(F)cc1)C1CC1)c1c[nH]c2ncc(C3CC3)nc12`, for which the IC50 amounted to 16.1 µM.

Regarding `CC(C)C[C@@H](NC(=O)c1c[nH]c2ncc(C3CC3)nc12)C(=O)NCCC(=O)NC1CCCC1`, the IC50 is over 100 µM.

Turning to `O=C(N[C@@H](C(=O)NCC(=O)N1CCOCC1)C1CC1)c1c[nH]c2ncc(C3CC3)nc12`, the half-inhibitory concentration (IC50) is over 100 µM.

Take `O=C(NCC(=O)N1CCCC1)c1c[nH]c2ncc(Br)nc12`: the IC50 is over 100 µM.

Consider `O=C(N[C@@H](C(=O)NCCc1ccccc1)C1CC1)c1c[nH]c2ncc(C3CC3)nc12`, for which the concentration for half-maximal inhibition (IC50) is over 100 µM.

Take `CCN(C)C(=O)c1c[nH]c2ncc(C(C)C)nc12`: the 50% inhibitory concentration (IC50) was over 100 µM.

Consider `Cc1ccc(CNC(=O)c2c[nH]c3ncc(C(C)C)nc23)nn1`, for which the IC50 is 139 µM.

Take `CC(C)c1cnc2[nH]cc(C(=O)NC3CCCCC3O)c2n1` (stereo not shown): the half-inhibitory concentration (IC50) is 11.3 µM.

On to `O=C(N[C@@H](C(=O)NCCC(=O)N1CCOCC1)C1CC1)c1c[nH]c2ncc(C3CC3)nc12`, for which the IC50 was over 100 µM.

For the molecule `O=C(N[C@@H](C(=O)NCC(=O)N1CCS(=O)(=O)CC1)C1CC1)c1c[nH]c2ncc(C3CC3)nc12`, the IC50 was over 100 µM.

Regarding `O=C(N[C@@H](C(=O)NCc1ccc(Cl)c(Cl)c1)C1CC1)c1c[nH]c2ncc(C3CC3)nc12`, the half-maximal inhibitory concentration (IC50) was found to be 4.7 µM.

`O=C(N[C@@H](C(=O)NCc1ccc(C(F)(F)F)cc1)C1CC1)c1c[nH]c2ncc(C3CC3)nc12`: the half-maximal inhibitory concentration (IC50) is 4.6 µM.

As for `COc1ccc(CCNC(=O)[C@H](NC(=O)c2c[nH]c3ncc(C4CC4)nc23)C2CC2)cc1`, the 50% inhibitory concentration (IC50) was over 100 µM.

As to `O=C(N[C@@H](C(=O)N1CCN(C2CCOCC2)CC1)C1CC1)c1c[nH]c2ncc(C3CC3)nc12`, the IC50 is over 100 µM.

Take `O=C(N[C@@H](C(=O)NCCC(=O)N1CCCC1)C1CC1)c1c[nH]c2ncc(C3CC3)nc12`: the concentration for half-maximal inhibition (IC50) was over 100 µM.

`O=C(N[C@@H](C(=O)N1CCc2ccccc2C1)C1CC1)c1c[nH]c2ncc(C3CC3)nc12`: the half-inhibitory concentration (IC50) was over 100 µM.

As for `O=C(N[C@@H](C(=O)N1CCC[C@H](C(=O)N2CCCCC2)C1)C1CC1)c1c[nH]c2ncc(C3CC3)nc12`, the 50% inhibitory concentration (IC50) came to 33.1 µM.

As for `CC(C)c1cnc2[nH]cc(C(=O)NCCCN3CCOCC3)c2n1`, the IC50 is over 100 µM.

With `O=C(N[C@@H](C(=O)NCc1ccccc1F)C1CC1)c1c[nH]c2ncc(C3CC3)nc12`, the concentration for half-maximal inhibition (IC50) was determined as 14.6 µM.

With `O=C(N[C@@H](C(=O)NCCc1ccc(Cl)cc1)C1CC1)c1c[nH]c2ncc(C3CC3)nc12`, the concentration for half-maximal inhibition (IC50) was over 100 µM.

For the molecule `CC(C)c1cnc2[nH]cc(C(=O)NCC(F)(F)F)c2n1`, the IC50 is over 50 µM.

Turning to `O=C(N[C@@H](C(=O)N1CCC[C@@H](C(=O)N2CCCCC2)C1)C1CC1)c1c[nH]c2ncc(C3CC3)nc12`, the IC50 was over 100 µM.

For the molecule `CC(C)C[C@@H](NC(=O)c1c[nH]c2ncc(C3CC3)nc12)C(=O)N1CCCC1`, the IC50 was over 100 µM.

Consider `CC(C)c1cnc2[nH]cc(C(=O)NC(C)C(C)(C)O)c2n1` (stereo not shown), for which the half-maximal inhibitory concentration (IC50) came out at 12.2 µM.

Regarding `N#CC(NC(=O)[C@H](NC(=O)c1c[nH]c2ncc(C3CC3)nc12)C1CC1)c1ccc(C(F)(F)F)cc1` (stereo partly shown), the concentration for half-maximal inhibition (IC50) is over 10 µM.

Consider `COc1ccc(C(C#N)NC(=O)[C@H](NC(=O)c2c[nH]c3ncc(C4CC4)nc23)C2CC2)cc1` (stereo partly shown), for which the IC50 is 4.9 µM.

Consider `O=C(N[C@@H](C(=O)Nc1ccccc1)C1CC1)c1c[nH]c2ncc(C3CC3)nc12`, for which the half-maximal inhibitory concentration (IC50) was over 100 µM.

As to `O=C(N[C@@H](C(=O)NCc1cccc(F)c1)C1CC1)c1c[nH]c2ncc(C3CC3)nc12`, the IC50 was 9.2 µM.

Consider `O=C(N[C@@H](C(=O)N1CC(F)(F)C1)C1CC1)c1c[nH]c2ncc(C3CC3)nc12`, for which the IC50 was over 100 µM.

Take `O=C(N[C@@H](C(=O)N1CCN(Cc2ccccc2)CC1)C1CC1)c1c[nH]c2ncc(C3CC3)nc12`: the half-inhibitory concentration (IC50) was 41.9 µM.

For `O=C(N[C@@H](C(=O)NCC(=O)N1CCCC1)C1CC1)c1c[nH]c2ncc(C3CC3)nc12`, the concentration for half-maximal inhibition (IC50) is over 100 µM.

Take `CC(C)C[C@@H](NC(=O)c1c[nH]c2ncc(C3CC3)nc12)C(=O)N1CC2(CN(C(=O)OC(C)(C)C)C2)C1`: the IC50 was over 100 µM.

Turning to `CC(C)C[C@@H](NC(=O)c1c[nH]c2ncc(C3CC3)nc12)C(=O)NCCC(=O)NCc1ccccn1`, the IC50 was over 100 µM.

As for `COCCN(CCOC)C(=O)c1c[nH]c2ncc(C(C)C)nc12`, the IC50 was over 100 µM.

As for `CC(C)c1cnc2[nH]cc(C(=O)NC3CCOC3(C)C)c2n1` (stereo not shown), the half-inhibitory concentration (IC50) is over 100 µM.

As to `O=C(N[C@@H](C(=O)NCc1cc(Cl)cc(Cl)c1)C1CC1)c1c[nH]c2ncc(C3CC3)nc12`, the IC50 is over 25 µM.

On to `CC(C)C[C@@H](NC(=O)c1c[nH]c2ncc(C3CC3)nc12)C(=O)NCCC(=O)NCc1ccccc1`, for which the IC50 is over 100 µM.

Turning to `O=C(N[C@@H](C(=O)N1CCCCC1)C1CC1)c1c[nH]c2ncc(C3CC3)nc12`, the IC50 was over 100 µM.

As for `O=C(N[C@@H](C(=O)N1CCOCC1)C1CC1)c1c[nH]c2ncc(C3CC3)nc12`, the IC50 is over 100 µM.

As to `CC(C)(NC(=O)c1c[nH]c2ncc(C3CC3)nc12)C(=O)N1CCCC1`, the IC50 is over 100 µM.

For `O=C(N[C@@H](C(=O)NCc1ccncc1)C1CC1)c1c[nH]c2ncc(C3CC3)nc12`, the IC50 came out at 40.4 µM.

As to `O=C(N[C@@H](C(=O)NCc1ccc(F)c(F)c1)C1CC1)c1c[nH]c2ncc(C3CC3)nc12`, the IC50 turned out to be 14.8 µM.

As to `O=C(N[C@@H](C(=O)N1CCCC1)C1CC1)c1c[nH]c2ncc(C3CC3)nc12`, the IC50 is over 25 µM.

Regarding `COc1ccc(NC(=O)[C@H](NC(=O)c2c[nH]c3ncc(C4CC4)nc23)C2CC2)cc1`, the IC50 is over 100 µM.

As to `CC(C)C[C@@H](NC(=O)c1c[nH]c2ncc(C3CC3)nc12)C(=O)NCC(=O)NCc1ccccc1`, the IC50 is over 100 µM.

As to `CC(C)C[C@@H](NC(=O)c1c[nH]c2ncc(C3CC3)nc12)C(=O)N1CC2(CNC2)C1`, the IC50 was over 100 µM.

Take `CCCNC(=O)c1c[nH]c2ncc(C(C)C)nc12`: the IC50 came to 18.1 µM.

Turning to `O=C(N[C@@H](C(=O)N1CCC[C@H](C(=O)N2CCOCC2)C1)C1CC1)c1c[nH]c2ncc(C3CC3)nc12`, the IC50 is over 100 µM.

Turning to `CC1(CNC(=O)c2c[nH]c3ncc(-c4ccccc4Cl)nc23)CCC(=O)N1` (stereo not shown), the IC50 is over 100 µM.

Regarding `O=C(N[C@@H](C(=O)NCc1ccccc1)C1CC1)c1c[nH]c2ncc(C3CC3)nc12`, the IC50 worked out at 18.2 µM.

For the molecule `O=C(N[C@@H](C(=O)NC1CCCc2ccccc21)C1CC1)c1c[nH]c2ncc(C3CC3)nc12` (stereo partly shown), the IC50 is over 100 µM.

The same assay, now with this note: Influenza A virus, H3N2, read-out: % CPE reduction.
For `CCOC(=O)C1(c2cccc(-c3cnc4[nH]cc(C(=O)NC(C)C)c4n3)c2)CC1`, the inhibition at 5 µM is -0.5%.

As for `O=C(N[C@@H](C(=O)NCc1ccccc1)C1CCCCC1)c1c[nH]c2ncc(C3CC3)nc12`, the inhibition at 5 µM is -2.2%.

On to `O=C(N[C@@H](C(=O)N1CC[C@@H](O)C1)C1CCCCC1)c1c[nH]c2ncc(C3CC3)nc12`, for which the inhibition at 50 µM is -14.8%.

`O=C(N[C@@H](C(=O)N[C@H]1CC[C@H](C(=O)O)CC1)C1CCCCC1)c1c[nH]c2ncc(C3CC3)nc12`: the inhibition at 50 µM was determined as 14.8%.

As to `CC(NC(=O)[C@H](NC(=O)c1c[nH]c2ncc(C3CC3)nc12)C1CC1)c1ccccc1` (stereo partly shown), the inhibition at 5 µM is 2.7%.

Consider `COC(=O)C1CCN(C(=O)[C@H](NC(=O)c2c[nH]c3ncc(C4CC4)nc23)C2CCCCC2)C1` (stereo partly shown), for which the inhibition at 5 µM is -8.1%.

On to `COc1ccc(C(C)(C)CNC(=O)c2c[nH]c3ncc(C4CC4)nc23)cc1OC`, for which the inhibition at 2.5 µM stood at 15.8%.

On to `O=C(N[C@@H](C(=O)NCc1ccncn1)C1CCCCC1)c1c[nH]c2ncc(C3CC3)nc12`, for which the inhibition at 50 µM was -2.2%.

As to `CC(C)C[C@@H](NC(=O)c1c[nH]c2ncc(C3CC3)nc12)C(=O)NCC(=O)Nc1ccccc1`, the inhibition at 50 µM was determined as 25%.

Regarding `O=C(NCC(=O)N1CCCC1)c1c[nH]c2ncc(C3CC3)nc12`, the inhibition at 50 µM is 36.2%.

Turning to `O=C(O)c1cccc(CNC(=O)[C@H](NC(=O)c2c[nH]c3ncc(C4CC4)nc23)C2CC2)c1`, the inhibition at 50 µM was -0.2%.

Turning to `O=C(N[C@@H](C(=O)N1CCC(C(=O)O)C1)C1CCCCC1)c1c[nH]c2ncc(C3CC3)nc12` (stereo partly shown), the inhibition at 5 µM is 11.6%.

With `O=C(N[C@@H](C(=O)NCc1cccnc1)C1CC1)c1c[nH]c2ncc(C3CC3)nc12`, the inhibition at 50 µM was 6.6%.

For the molecule `O=C(N[C@@H](C(=O)NCc1ccncc1)C1CCCCC1)c1c[nH]c2ncc(C3CC3)nc12`, the inhibition at 50 µM is -8.3%.

On to `NC(=O)C(NC(=O)c1c[nH]c2ncc(C3CC3)nc12)c1ccc(OC(F)(F)F)cc1` (stereo not shown), for which the inhibition at 5 µM was -12.9%.

Take `O=C(N[C@@H](C(=O)NCC1CCOCC1)C1CCCCC1)c1c[nH]c2ncc(C3CC3)nc12`: the inhibition at 5 µM is 20.5%.
